The source of these data is patent publication US20220257702A1, “STABLE ALBUVIRTIDE COMPOSITIONS” (priority 2019, published 2022).

Data set [1] can be described thus: Stability of lyophilized albuvirtide compositions upon storage at 25° C. (HPLC). Type of data set: physicochemical. The following applies: in words. On the procedure: (§1) The liquid compositions having albuvirtide and PB were then lyophilized and their stability were tested. Part of the organic solvent could be removed using reduced-pressure evaporation. Stability of Albuvirtide-PB upon lyophilization, upon storage at 25° C., 6° C. and −20° C. were tested using HPLC. The lyophilized powder of Albuvirtide-PB were kept at 25° C., 6° C. and −20° C. for certain periods of time while their purities were monitored during such periods by HPLC.

Data set [2] in a line: Stability of lyophilized Albuvirtide-PB upon storage at 6° C. (HPLC). Type of data set: physicochemical. The following applies: in words. On the procedure:
as §1

A short description of data set [3]: Stability of lyophilized Albuvirtide-PB upon storage at −20° C. (HPLC). Type of data set: physicochemical. To be noted: in words, Table 6. On the procedure: as §1
The test system of the next data set is HIV-1. To be noted: background statement; cited from earlier work.
For data set [4] the following is noted: cited from earlier work.

Take albuvirtide: the “purity of albuvirtide during storage for 5 days at 25° C.” value in data set [1] (Table 9) is given as “barely changed”. Besides, the “purity of albuvirtide during storage for 1 month at 25° C.” value in data set [1] (Table 11) is listed as “barely changed”. For the same substance, the “change in purity of albuvirtide during storage for 1 month at 6° C.” value in data set [2] (Table 5) is “equivalent to that during storage at 25 °C for 5 days”. Besides, in data set [2] (Table 10), the “purity of albuvirtide during storage for 2 months at 6° C.” value is given as “barely changed”. Moreover, the “purity of albuvirtide during storage for 3 month at −20° C.” value in data set [3] is reported as “barely changed”. Further, in the data set with HIV-1, the “concentration at which viral entry is inhibited” value is given as “low nanomolar concentration”; the “in vitro activity against HIV-1” value was “in vitro activity against various HIV-1 strains and certain variants that are resistant to enfuvirtide (Fuzeon)”. The in vivo half-life result in data set [4] was “long half-life”.
